# Legend:
# [1] = tested on: ubiquitous microbial cultures collected from common household and mammalian sources; assay: filter disc incubation with streak-inoculated microbial cultures; type: cell-based; conditions: filter discs impregnated by aqueous saturation, incubated with the cultures
# Protocol: Initial comparative studies were conducted in an effort to validate the antimicrobial activities of cupric compounds, wherein ubiquitous microbial cultures were collected from common household and mammalian sources and isolated in identifiable colonies by streak inoculation.
# foot odor [2] = assay: efficacy duration study, twenty-six persons, right vs left footwear, olfactory evaluation; type: in vivo, human; conditions: for olfactory evaluation of footwear and feet: three days following administration
# Protocol: Thereafter, to test the efficacy duration of the preferred mixture and concentration of the present invention, a study was conducted of twenty-six persons, male and female, ranging in ages from 7-71 years, all presenting with foul and distressing foot odor. These twenty-six persons had all of their “right-side” footwear treated with 1-1.25 g of cupric carbonate and their “left-side” footwear with 1-1.25 g sodium bicarbonate. Three days following administration, each shoe worn and both feet of each participant were evaluated via olfactory sense. Evaluation results were the same, without exception, for all participants.
# foot odor [3] = assay: dosing specification study, organoleptic odor evaluation, six volunteers; type: in vivo, human; conditions: for organoleptic odor evaluation: after three, 10 and 30 days
# Protocol: Dosing specification studies were conducted in order to define a preferred minimum quantity for preferred use; although mindful of the differences in performance, more or less than the preferred minimum quantity could be utilized in alternate compositions. Initial test dosing was approximately 3.5 to 4.0 grams dispersed within each shoe, with excess bumped out through the footwear opening.
# In the study, six volunteer participants with confirmed and self-recognized foot odor participated in trials to establish preferred upper and lower specification ranges. […] The left shoes were treated in a variable fashion, from an initial 3.5 gram dose to a final dose of 0.5 grams, via 0.5 gram increments. An organoleptic evaluation was performed by each test subject, and also be the inventor, after three days, 10 days, and 30 days of treatment for each dose.
# foot odor [4] = assay: initial empirical use studies in footwear
# Excerpt: Initial empirical use studies involved finely divided elemental copper powder.
molecule,measurement,setting,value
"CC(=O)[O-].CC(=O)[O-].[Cu+2] [acetate solution, cupric acetate]",antimicrobial properties,[1],confirming the existence of antimicrobial properties
"O=C([O-])O.[Na+] [sodium bicarbonate, reference compound]",olfactory evaluation of footwear and feet,foot odor [2]; 1-1.25 g per shoe,no obvious change in degree of unpleasant odor
"cupric carbonate, CuCO3.Cu(OH)2",olfactory evaluation of footwear and feet,foot odor [2]; 1-1.25 g per shoe,no detectable hint of unpleasantness
same,duration of effectiveness,"foot odor [2]; 1-1.25 g per shoe, in many cases twelve months or more",at least six
same,effectiveness,foot odor [2]; for at least six months,~100%
same,antimicrobial properties,[1],confirming the existence of antimicrobial properties
same,efficacy against foot odor in earlier testing,"foot odor [3]; 4.0 gram dosing, positive control, right shoe",shown the efficacy
same,organoleptic odor evaluation,foot odor [3]; dosed at or above 1.5 grams per shoe,no detectable trace of odor beyond that of damp footwear
same,organoleptic odor evaluation,foot odor [3]; dosed at or below 1.0 gram per shoe,"some malodorous relief, but for a more limited period of time"
same,contact dermatitis,foot odor [4]; in vivo,contact dermatitis was completely eliminated
cupric chloride,contact dermatitis,foot odor [4]; use in footwear,varying degrees of contact dermatitis

# Reference: US20080220065A1, “Compositions for treating foot odor and methods of use thereof” (priority 2007, published 2008)
